From patent US5792793A, “Antibacterial, antifungal and antiviral agent” (priority 1993, dated 1998)

What was measured:
[1] = system: B. subtilis; assay: Minimal inhibitory concentration, B. subtilis; details: SCD liquid medium, 48 hours at 35° C.
Description: (§1) (b) Method for measuring antibacterial activity based on a minimal inhibitory concentration (MIC)
(§2) A bacterium was inoculated in a soybean casein digest (SCD) liquid medium (5 ml) and precultured for 24 hours at 35° C. The precultured bacterial liquid was diluted so as to obtain a 100-fold diluted liquid (0.1 ml), and was inoculated into an SCD liquid medium containing a thiol-silver complex (2 ml). After performing shaking culture for 48 hours at 35° C., presence or absence of proliferation was assessed.

[2] = system: E. coli; assay: Minimal inhibitory concentration, E. coli; assay type: cell-based; details: SCD liquid medium, 48 hours at 35° C.
[3] = system: P. aeruginosa; assay: Minimal inhibitory concentration, P. aeruginosa; details: SCD liquid medium, 48 hours at 35° C.
Description: as §1, §2

[4] = system: C. albicans; assay: Minimal inhibitory concentration, C. albicans; details: GP liquid medium, 48 hours at 35° C.
Description: (§3) Yeast was inoculated in a glucose-peptone (GP) liquid medium (5 ml) and precultured for 24 hours at 35° C. The precultured bacterial liquid was diluted so as to obtain a 100-fold diluted liquid (0.1 ml), and was inoculated into a GP liquid medium containing a thiol-silver complex (2 ml). After performing shaking culture for 48 hours at 35° C., presence or absence of proliferation was assessed.

[5] = system: Aspergillus flavus; assay: Surface-smearing method, Aspergillus flavus; assay type: cell-based; details: about 10 mg complex, 4 days at 25° C.
[6] = system: Penicillium chrysogenum; assay: Surface-smearing method, Penicillium chrysogenum; assay type: cell-based; design: key: the proliferation level of the control (=100%, -); +: up to 80% of proliferation with respect to the proliferation level of the control (=100%, -); ++: up to 40% of proliferation; +++: almost complete suppression of proliferation; details: about 10 mg complex, 4 days at 25° C.
[7] = system: Cladosporium cladosporoides; assay: Surface-smearing method, Cladosporium cladosporoides; assay type: cell-based; design: key: the proliferation level of the control (=100%, -); +: up to 80% of proliferation with respect to the proliferation level of the control (=100%, -); ++: up to 40% of proliferation; +++: almost complete suppression of proliferation; details: about 10 mg complex, 4 days at 25° C.
[8] = system: S. aureus; assay: Minimal inhibitory concentration, S. aureus; assay type: cell-based; details: SCD liquid medium, 48 hours at 35° C.
[9] = system: S. cerevisiae; assay: Minimal inhibitory concentration, S. cerevisiae; details: GP liquid medium, 48 hours at 35° C.
Description: as §3

[10] = system: Fusarium oxysporum; assay: Surface-smearing method, Fusarium oxysporum; assay type: cell-based; details: about 10 mg complex, 4 days at 25° C.
[11] = Solubility in water; details: 20° C.
[12] = system: human cytomegalovirus (HCMV); assay: Anti-HCMV activity, Experiment 1; assay type: cell-based; details: 10 μg/ml; Experiment 1, HCMV 1×10^3 pfu/ml, HEL cells, 72 hours; control 30
[13] = system: mice; assay: Peroral toxicity, single dose; assay type: in vivo, mice (ICR, male); details: for Dead mice/Total mice: day 14
[14] = system: human cytomegalovirus (HCMV); assay: Anti-HCMV activity, Experiment 2 (2); assay type: cell-based; details: HCMV 1×10^4 pfu/ml, washed after 1 hour adsorption, 72 hours, control 120
[15] = system: human cytomegalovirus (HCMV); assay: Anti-HCMV activity, Experiment 2 (1); assay type: cell-based; details: HCMV 1×10^4 pfu/ml, medium not changed, 72 hours, control 390
[16] = Stability against exposure to light (color difference); assay type: physicochemical
Description: To 10 mg of each of the thiol-silver complexes shown in Table 9 to be tested, 1 ml of ethanol was added and then sonicated so as to disperse particles. The dispersed particles were uniformly fixed onto a Kiriyama filter paper (No. 3, diameter: 21 mm) by the application of a suction force. After drying, test pieces of the filter paper were sandwiched between colorless transparent plastic films (each having a thickness of 0.1 mm) and the peripheries were sealed.
The test pieces were exposed to sunlight outdoors on a sunny day. During the test, they were placed such that their surfaces received direct rays of the sun at an incidence angle of approximately 90°.
Measurement was performed using a color difference meter CR-300 (using D65 rays) manufactured by Minolta Camera Co., Ltd. Six hours after exposure to sunlight, measurement was reiterated 4 times and the data were averaged.

[17] = after exposure to sunlight, six hours

Compound: 2-Naphthalenethiol-silver complex [#3]
- Minimal Inhibitory Concentration [1]: < 2 µg/mL
- Minimal Inhibitory Concentration [2]: 8 µg/mL
- Minimal Inhibitory Concentration [3]: 250 µg/mL
- Minimal Inhibitory Concentration [4]: 125 µg/mL
- antibacterial activity ranking, surface-smearing method [5]: + (up to 80% of proliferation with respect to the proliferation level of the control (=100%, -))
- antibacterial activity ranking, surface-smearing method [6]: + (up to 80% of proliferation with respect to the proliferation level of the control (=100%, -))
- antibacterial activity ranking, surface-smearing method [7]: +++
- Minimal Inhibitory Concentration [8]: 250 µg/mL
- Minimal Inhibitory Concentration [9]: 62.5 µg/mL
- antibacterial activity ranking, surface-smearing method [10]: - (the proliferation level of the control (=100%, -))

Compound: α-Thioglycerol-silver complex [#14-b]
- Minimal Inhibitory Concentration [1]: 250 µg/mL
- Minimal Inhibitory Concentration [3]: 62.5 µg/mL
- Minimal Inhibitory Concentration [4]: > 1000 µg/mL
- antibacterial activity ranking, surface-smearing method [5]: - (the proliferation level of the control (=100%, -))
- antibacterial activity ranking, surface-smearing method [6]: + (up to 80% of proliferation with respect to the proliferation level of the control (=100%, -))
- antibacterial activity ranking, surface-smearing method [7]: ++ (up to 40% of proliferation)
- Minimal Inhibitory Concentration [8]: 250 µg/mL
- Minimal Inhibitory Concentration [9]: 250 µg/mL
- antibacterial activity ranking, surface-smearing method [10]: - (the proliferation level of the control (=100%, -))

Compound: [Cl][Ag] [silver chloride]
- solubility, in water [11]: less than 1 % by weight

Compound: Thiosalicylic acid-silver complex [#1L-8H]
- Minimal Inhibitory Concentration [1]: < 2 µg/mL
- number of cells positive in fluorescent staining (single field of vision) [12]: 5
- Dead mice/Total mice ([13]; 1762 mg/kg peroral single dose): 0/5
- Dead mice/Total mice ([13]; 2291 mg/kg peroral single dose): 0/5
- Dead mice/Total mice ([13]; 2978 mg/kg peroral single dose): 0/4
- Dead mice/Total mice ([13]; 3871 mg/kg peroral single dose): 0/4
- LD50 ([13]; peroral, single dose, ICR male mice, 20160 min): not less than 3.9 g/kg
- number of cells positive in fluorescent staining (single field of vision) ([14]; 1 μg/ml): 30
- number of cells positive in fluorescent staining (single field of vision) ([14]; 10 μg/ml): 30
- number of cells positive in fluorescent staining (single field of vision) ([14]; 50 μg/ml): 20
- number of cells positive in fluorescent staining (single field of vision) ([15]; 1 μg/ml): 280
- number of cells positive in fluorescent staining (single field of vision) ([15]; 10 μg/ml): 240
- number of cells positive in fluorescent staining (single field of vision) ([15]; 50 μg/ml): 100
- Minimal Inhibitory Concentration [2]: < 2 µg/mL
- Minimal Inhibitory Concentration [3]: 16 µg/mL
- Minimal Inhibitory Concentration [4]: 1000 µg/mL
- L* (L*a*b* color representation) [16, 17]: 65.4
- a* (L*a*b* color representation) [16, 17]: 8.3
- b* (L*a*b* color representation) [16, 17]: 40.1
- L* (L*a*b* color representation) ([16]; before exposure to sunlight): 83.1
- a* (L*a*b* color representation) ([16]; before exposure to sunlight): 13.2
- b* (L*a*b* color representation) ([16]; before exposure to sunlight): 66.4
- antibacterial activity ranking, surface-smearing method [5]: - (the proliferation level of the control (=100%, -))
- antibacterial activity ranking, surface-smearing method [6]: ++ (up to 40% of proliferation)
- antibacterial activity ranking, surface-smearing method [7]: +++
- Minimal Inhibitory Concentration [8]: 16 µg/mL
- Minimal Inhibitory Concentration [9]: 125 µg/mL
- antibacterial activity ranking, surface-smearing method [10]: ++ (up to 40% of proliferation)

Compound: 5-Mercapto-(1H)tetrazoylacetic acid-silver complex.Na [#16-b]
- Minimal Inhibitory Concentration [1]: 32 µg/mL
- Minimal Inhibitory Concentration [2]: 16 µg/mL
- Minimal Inhibitory Concentration [3]: 16 µg/mL
- Minimal Inhibitory Concentration [4]: 250 µg/mL
- antibacterial activity ranking, surface-smearing method [5]: + (up to 80% of proliferation with respect to the proliferation level of the control (=100%, -))
- antibacterial activity ranking, surface-smearing method [6]: +++
- antibacterial activity ranking, surface-smearing method [7]: +++
- Minimal Inhibitory Concentration [8]: 32 µg/mL
- Minimal Inhibitory Concentration [9]: 125 µg/mL
- antibacterial activity ranking, surface-smearing method [10]: ++ (up to 40% of proliferation)
